System: 565726-208-R1-J5-PDC complex spheroids, growth inhibition
Assay: Anticancer human tumor 565726-208-R1-J5-PDC patient-derived pancreatic adenocarcinoma cell line growth inhibition [RAS]
Details: for IC50: curve of first compound; for viability, T/C: stronger effect = lower value; active means viability on the fitted dose curve at most 10% of control; inactive means the rest
In short: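 Multi-cell-type spheroids: tumor cells plus HUVEC endothelial cells and mesenchymal stem cells. RAS-pathway inhibitors were combined with targeted agents, each dosed in half-log steps down from clinical Cmax, or from 10 microM when Cmax was unknown.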

[1] = second compound 0.000949 µM, first compound 0.0316 µM
[2] = second compound 0.000949 µM, first compound 0.1 µM
[3] = second compound 0.003 µM, first compound 0.0316 µM
[4] = second compound 0.003 µM, first compound 0.1 µM
[5] = second compound 0.00949 µM, first compound 0.0316 µM
[6] = second compound 0.00949 µM, first compound 0.1 µM
[7] = second compound 0.03 µM, first compound 0.0316 µM
[8] = second compound 0.03 µM, first compound 0.1 µM
[9] = second compound 0.0949 µM, first compound 0.0316 µM
[10] = second compound 0.0949 µM, first compound 0.1 µM
[11] = second compound 0.3 µM, first compound 0.0316 µM
[12] = second compound 0.3 µM, first compound 0.1 µM
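Further: spheroids exposed to compounds for seven days before readout.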
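Wherever viability, T/C is given: 100% = DMSO vehicle control viability.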

CC(C)NCC(C(=O)N1CCN(c2ncnc3c2C(C)CC3O)CC1)c1ccc(Cl)cc1 (centres undefined) + CCn1c(-c2cccnc2C(C)OC)c2c3cc(ccc31)N1CCOC(CC(NC(=O)C(C(C)C)N(C)C(=O)C3(F)CCN(C(=O)C#CC(C)(C)N(C)C)CC3)C(=O)N3CCCC(N3)C(=O)OCC(C)(C)C2)C1
inactive: viability, T/C [1] 106% | viability, T/C [2] 94.1% | viability, T/C (second compound 0.000949 µM, first compound 0.316 µM) 97.6% | viability, T/C (second compound 0.000949 µM, first compound 1 µM) 85.1% | viability, T/C (second compound 0.000949 µM, first compound 3.16 µM) 74% | viability, T/C (second compound 0.000949 µM, first compound 10 µM) 56.6% | viability, T/C [3] 105% | viability, T/C [4] 99.2% | viability, T/C (second compound 0.003 µM, first compound 0.316 µM) 105% | viability, T/C (second compound 0.003 µM, first compound 1 µM) 94.7% | viability, T/C (second compound 0.003 µM, first compound 3.16 µM) 84.2% | viability, T/C (second compound 0.003 µM, first compound 10 µM) 59.4% | viability, T/C [5] 96% | viability, T/C [6] 104% | viability, T/C (second compound 0.00949 µM, first compound 0.316 µM) 94.3% | viability, T/C (second compound 0.00949 µM, first compound 1 µM) 99.8% | viability, T/C (second compound 0.00949 µM, first compound 3.16 µM) 88.1% | viability, T/C (second compound 0.00949 µM, first compound 10 µM) 57.1% | viability, T/C [7] 101% | viability, T/C [8] 95.5% | viability, T/C (second compound 0.03 µM, first compound 0.316 µM) 106% | viability, T/C (second compound 0.03 µM, first compound 1 µM) 89.4% | viability, T/C (second compound 0.03 µM, first compound 3.16 µM) 84.4% | viability, T/C (second compound 0.03 µM, first compound 10 µM) 56.5% | viability, T/C [9] 93.5% | viability, T/C [10] 98.8% | viability, T/C (second compound 0.0949 µM, first compound 0.316 µM) 96.9% | viability, T/C (second compound 0.0949 µM, first compound 1 µM) 86.5% | viability, T/C (second compound 0.0949 µM, first compound 3.16 µM) 85.5% | viability, T/C (second compound 0.0949 µM, first compound 10 µM) 57.7% | viability, T/C [11] 95.2% | viability, T/C [12] 87% | viability, T/C (second compound 0.3 µM, first compound 0.316 µM) 85.8% | viability, T/C (second compound 0.3 µM, first compound 1 µM) 80.8% | viability, T/C (second compound 0.3 µM, first compound 3.16 µM) 70.7% | viability, T/C (second compound 0.3 µM, first compound 10 µM) 43.2%
> 10000 nM: IC50 (second compound 0.000949 µM) | IC50 (second compound 0.003 µM) | IC50 (second compound 0.00949 µM) | IC50 (second compound 0.03 µM) | IC50 (second compound 0.0949 µM)
7560 nM: IC50 (second compound 0.3 µM)

CC(C)n1nc(-c2ccc3oc(N)nc3c2)c2c(N)ncnc21 + CCn1c(-c2cccnc2C(C)OC)c2c3cc(ccc31)N1CCOC(CC(NC(=O)C(C(C)C)N(C)C(=O)C3(F)CCN(C(=O)C#CC(C)(C)N(C)C)CC3)C(=O)N3CCCC(N3)C(=O)OCC(C)(C)C2)C1
13 nM: IC50 (second compound 0.3 µM)
19.2 nM: IC50 (second compound 0.000949 µM)
24.5 nM: IC50 (second compound 0.00949 µM)
23.1 nM: IC50 (second compound 0.03 µM)
inactive: viability, T/C (second compound 0.000949 µM, first compound 0.000316 µM) 95.6% | viability, T/C (second compound 0.000949 µM, first compound 0.001 µM) 91.2% | viability, T/C (second compound 0.000949 µM, first compound 0.00316 µM) 91.5% | viability, T/C (second compound 0.000949 µM, first compound 0.01 µM) 59.8% | viability, T/C [1] 43.4% | viability, T/C [2] 27.5% | viability, T/C (second compound 0.003 µM, first compound 0.000316 µM) 101% | viability, T/C (second compound 0.003 µM, first compound 0.001 µM) 90.5% | viability, T/C (second compound 0.003 µM, first compound 0.00316 µM) 85.2% | viability, T/C (second compound 0.003 µM, first compound 0.01 µM) 67.1% | viability, T/C [3] 46.5% | viability, T/C [4] 28.1% | viability, T/C (second compound 0.00949 µM, first compound 0.000316 µM) 103% | viability, T/C (second compound 0.00949 µM, first compound 0.001 µM) 93.9% | viability, T/C (second compound 0.00949 µM, first compound 0.00316 µM) 86.8% | viability, T/C (second compound 0.00949 µM, first compound 0.01 µM) 69.8% | viability, T/C [5] 43.2% | viability, T/C [6] 26.9% | viability, T/C (second compound 0.03 µM, first compound 0.000316 µM) 83.2% | viability, T/C (second compound 0.03 µM, first compound 0.001 µM) 91% | viability, T/C (second compound 0.03 µM, first compound 0.00316 µM) 79% | viability, T/C (second compound 0.03 µM, first compound 0.01 µM) 68.8% | viability, T/C [7] 43% | viability, T/C [8] 26.7% | viability, T/C (second compound 0.0949 µM, first compound 0.000316 µM) 93% | viability, T/C (second compound 0.0949 µM, first compound 0.001 µM) 92.1% | viability, T/C (second compound 0.0949 µM, first compound 0.00316 µM) 82.5% | viability, T/C (second compound 0.0949 µM, first compound 0.01 µM) 62.1% | viability, T/C [9] 40.2% | viability, T/C [10] 25.1% | viability, T/C (second compound 0.3 µM, first compound 0.000316 µM) 89.3% | viability, T/C (second compound 0.3 µM, first compound 0.001 µM) 85.1% | viability, T/C (second compound 0.3 µM, first compound 0.00316 µM) 75.2% | viability, T/C (second compound 0.3 µM, first compound 0.01 µM) 54.8% | viability, T/C [11] 33.8% | viability, T/C [12] 24%
26.8 nM: IC50 (second compound 0.003 µM)
18.8 nM: IC50 (second compound 0.0949 µM)
